In patent US20260217698A1 (BEYANG THERAPEUTICS CO., LTD., priority 2022, published 2026):
Values after ≈ are worked out from the molar mass of the structure shown.

Experiments:
[1] = target: T1, VEGFR1 (Homo sapiens, UniProt P17948); assay: Kinase inhibition, Mobility Shift Assay/IMAP, VEGFR1; type: biochemical
T1 construct: purchased Invitrogen PR6731B
Procedure, shortened: (§1)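 Substrate conversion (phosphorylated vs non-phosphorylated) read by mobility shift on Caliper EZ Reader II and converted to % inhibition relative to no-enzyme and DMSO controls. IC50 fitted from % inhibition versus log compound concentration.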

[2] = target: T2, VEGFR3 (Homo sapiens, UniProt P35916); assay: Kinase inhibition, Mobility Shift Assay/IMAP, VEGFR3; type: biochemical
T2 construct: purchased Invitrogen PV4129
Procedure, shortened: as §1

[3] = target: T3, TIE2 (Homo sapiens, UniProt Q02763); assay: Kinase inhibition, Mobility Shift Assay/IMAP, TIE2; type: biochemical
T3 construct: purchased BPS 40270
Procedure, shortened: as §1

[4] = target: T4, EGFR (Homo sapiens, UniProt P00533); assay: Kinase inhibition, Mobility Shift Assay/IMAP, EGFR; type: biochemical
T4 construct: purchased Carna 08-115
Procedure, shortened: as §1

[5] = tested on: HUVEC cells; assay: Inhibition of VEGF-induced HUVEC cell proliferation, CellTiter Glo; type: cell-based; settings: Homo sapiens, 20 ng/ml VEGF, 72 hours
Text: In this experiment, human umbilical vein endothelial cells (HUVEC, Lonza) were used. HUVEC cells are primary cells isolated from umbilical veins. This cell line is a model system to study the functions of endothelial cells. Endothelial cell proliferation in response to VEGF is crucial to the pathological angiogenesis associated with conditions such as tumor development and ocular neovascular diseases.
In this assay, a luciferase bioluminescence assay (CellTiter GLU™, Promega) is used to determine the inhibitory activity of the compounds against VEGF-induced HUVEC cell proliferation and viability. CellTiter GLO™ is a homogeneous method for quantifying the count of viable cells in culture based on ATP, an indicator of metabolically active cells. In this assay, the compound was incubated with HUVEC cells for 72 hours, and then the inhibitory activity of the resulting compound against VEGF-induced HUVEC cell proliferation was measured on the En Vision plate reader.
With the RPMI-1640 medium (plus 5% FBS, 1% Penicillin-Streptomycin) used for the HUVEC cell proliferation experiment, add a cell suspension to a 96-well plate at 100 μl per well, i.e., 4000 HUVEC cells/well, and incubate them overnight in a 5% CO2 incubator at 37° C. (serum starvation). After 24 hours, add 96 μl of the experimental medium to the cell wells, and then add 2 μl of the compound to the cell wells; and after 1 hour following the addition of the compound, add 2 μl of 2 μg/ml VEGF to the cell wells. Add 0.1% DMSO and 20 ng/ml VEGF to cell wells to serve as high-reading control wells. Take cell-free wells with only medium as low-reading control wells. […] After 72 hours of incubation of the cell plate in the incubator, hold the cell plate to be tested at room temperature and discard 100 μl of medium per well. Add 100 μl of CTG reagent (CellTiter Glo kit) per well, oscillate the cell plate in a fast oscillator for 3 minutes, and keep the cell plate at room temperature in the dark for 30 minutes. Read the chemiluminescence signal value with the Envision instrument.
X indicates the log value of compound concentration, Y indicates the inhibition rate (% inhibition), Top indicates the readout of the high-reading control well.

[6] = tested on: melanin; assay: Binding capacity of compounds to melanin; type: in vitro ADME, cuttlefish (Sepia officinalis); settings: cuttlefish (Sepia officinalis), melanin suspension (1 mg/mL); 1 mg/mL melanin in PBS pH 7.4, 2 μM compound, 2 h at 37° C.; read-out: Fu % (percentage of free drug)
Procedure, shortened: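 Compound (2 μM final) incubated with washed Sepia melanin (1 mg/mL, PBS pH 7.4) 2 h at 37° C with shaking; PBS with 0.1% BSA served as blank. Supernatants quantified by LC-MS/MS; bound fraction Fb derived from melanin versus blank concentration.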

[7] = target: T5, VEGFR2 (Homo sapiens, UniProt P35968); assay: Kinase inhibition, Mobility Shift Assay/IMAP, VEGFR2; type: biochemical; parameters: purchased Carna 08-191
Procedure, shortened: as §1
Target sequence in this assay (P35968 790-1356 limits assumed): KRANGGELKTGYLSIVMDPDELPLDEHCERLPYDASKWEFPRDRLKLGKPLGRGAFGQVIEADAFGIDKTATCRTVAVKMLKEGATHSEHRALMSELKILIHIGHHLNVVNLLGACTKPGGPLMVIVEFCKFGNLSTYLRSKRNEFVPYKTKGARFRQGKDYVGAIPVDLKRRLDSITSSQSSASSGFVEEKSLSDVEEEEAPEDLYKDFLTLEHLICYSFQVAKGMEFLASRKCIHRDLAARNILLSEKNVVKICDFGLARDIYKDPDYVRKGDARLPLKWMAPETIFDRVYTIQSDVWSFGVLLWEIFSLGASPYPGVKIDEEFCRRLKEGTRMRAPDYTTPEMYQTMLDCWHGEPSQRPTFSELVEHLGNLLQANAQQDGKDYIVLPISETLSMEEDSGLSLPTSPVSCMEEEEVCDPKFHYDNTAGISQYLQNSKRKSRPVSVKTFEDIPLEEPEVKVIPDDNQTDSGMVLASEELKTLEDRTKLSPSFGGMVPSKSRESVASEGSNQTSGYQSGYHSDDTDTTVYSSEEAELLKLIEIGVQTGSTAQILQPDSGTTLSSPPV

[8] = Solubility test in buffer, LC-MS; type: physicochemical; settings: aqueous buffer, thermodynamic from solid, room temperature, shaking 8 h, pH not given (method: pH 2.0, 6.5, 7.4)
Experimental: Accurately weigh 3 portions of about 2 mg of the compound, and add appropriate volumes of buffers with the pHs of 2.0, 6.5, and 7.4 respectively to obtain a solution with a concentration of 2 mg/mL. After sonication for 10 min, fix them on a shaker and shaking for 8 h at room temperature. After shaking, sonicate for 10 min and centrifuge for 15 min at 13,000 rpm. Pipette 0.1 mL of supernatant into a new tube, shake and rinse it with 5 mL, and discard the liquid. Transfer 0.5 mL of the supernatant again to a new tube, centrifuge it for 15 min at 13,000 rpm, then collect the supernatant (if necessary, dilute with water) and analyze it by LC-MS. The sample concentrations at 3~5 points are subjected to fitting and reticle for quantification.

[9] = target: T5, VEGFR2; assay: Inhibition of VEGF-induced VEGFR2 autophosphorylation (pVEGFR2) in HUVEC cells, ELISA; type: cell-based; parameters: endogenous in cells; host or cells: HUVEC; settings: 50 ng/mL human VEGF, compound 1 h
Text: Vascular endothelial growth factor receptor 2 (VEGFR2) is a primary receptor for VEGF-induced endothelial cell signaling. After ligand binding, VEGFR2 is autophosphorylated and activated. The main function of signaling from VEGFR2 is to induce vascularization during development and after tissue injury, and to bypass blocked blood vessels. Pathologically, VEGF and VEGFR2 are involved in tumor angiogenesis and vascular leakage. They are considered to be main participants in many different cancers and ocular diseases that accompany pathological neovascularization. This assay measured the ability of the compounds to inhibit VEGF-induced VEGFR2 autophosphorylation (pVEGFR2) in HUVEC cells by using ELISA.
Culture cells in a cell culture flask to reach a fusion degree of 60%-80% before cell inoculation. Dilute the cell suspension to […] with a pre-warmed complete medium. Add 80 μL of the cell suspension to all wells of a 96-well cell plate (Corning-3599); and incubate the plate overnight at 37° C. in the presence of 5% CO2. Dissolve the compound powder to 10 mM with DMSO and store it in a nitrogen cabinet. Compound dilution plate: Add a reference compound Ponatinib or a compound to be tested to a 96 V-well plate (Axygen-WIPP 2280) at concentrations achieved as follows: performing 3-fold gradient dilution starting from 5 mM (5 μL of 10 mM compound solution plus 5 μL of DMSO) for a total of 8 concentration points. […] Transfer 20 μL of the diluted compound from the intermediate plate to a cell plate. Then, incubate the cell plate for 1 h at 37° C. in the presence of 5% CO2. After the compound was treated for 1 h, add 25 μL of 250 ng/ml human VEGF at a final concentration of 50 ng/mL to a 96-well plate; and incubate the plate for 5 min at 37° C. in the presence of 5% CO2, centrifuge the plate for 10 min at 3,000 rpm, remove the medium and wash the cells once with 300 μL of pre-chilled DPBS per well. Then, centrifuge the plate for 10 min at 4,000 rpm, remove DPBS, and add 110 μL of pre-chilled 1× cell lysis buffer per well to the 96-well plate. Shake the plate for 40 min at 4° C. Then, freeze the plate in a refrigerator at −80° C. On the next day, remove the plate from the refrigerator at −80° C., thaw the plate, centrifuge the plate for 10 min at 3500 rpm, and add 100 μL of the supernatant per well to an ELISA plate. Seal the plate and incubate it for 2 h at 37° C. Wash the wells 4 times with 1× wash buffer. Add 100 μL of recombinant detection antibody per well. Seal the plate, incubate the plate for 1 h at 37° C., and repeat the step of plate washing. Add 100 μL of secondary antibody per well. Seal the plate, incubate the plate for 30 min at 37° C., and repeat the step of plate washing. Add 100 μL of TMB (protected from light) per well. Seal the plate, incubate the plate for 30 min at 37° C., and add 100 μL of the stop solution per well. Gently shake for 30 sec, measure the absorbance with a SpectraMax® 340 PC 384 Absorbance Microplate Reader within 30 min, and read an optical density value at 450 nm. Conduct data analysis using XL Fit software:
Conduct curve fitting using the 4 Parameter Logistic Model or Sigmoidal Dose-Response Model to obtain IC50 values.
X indicates the log value of compound concentration, Y indicates the inhibition rate (% inhibition), Top indicates the readout of the negative control wells, and Bottom indicates the readout of the positive control well.

T2 sequence (P35916 25-1363): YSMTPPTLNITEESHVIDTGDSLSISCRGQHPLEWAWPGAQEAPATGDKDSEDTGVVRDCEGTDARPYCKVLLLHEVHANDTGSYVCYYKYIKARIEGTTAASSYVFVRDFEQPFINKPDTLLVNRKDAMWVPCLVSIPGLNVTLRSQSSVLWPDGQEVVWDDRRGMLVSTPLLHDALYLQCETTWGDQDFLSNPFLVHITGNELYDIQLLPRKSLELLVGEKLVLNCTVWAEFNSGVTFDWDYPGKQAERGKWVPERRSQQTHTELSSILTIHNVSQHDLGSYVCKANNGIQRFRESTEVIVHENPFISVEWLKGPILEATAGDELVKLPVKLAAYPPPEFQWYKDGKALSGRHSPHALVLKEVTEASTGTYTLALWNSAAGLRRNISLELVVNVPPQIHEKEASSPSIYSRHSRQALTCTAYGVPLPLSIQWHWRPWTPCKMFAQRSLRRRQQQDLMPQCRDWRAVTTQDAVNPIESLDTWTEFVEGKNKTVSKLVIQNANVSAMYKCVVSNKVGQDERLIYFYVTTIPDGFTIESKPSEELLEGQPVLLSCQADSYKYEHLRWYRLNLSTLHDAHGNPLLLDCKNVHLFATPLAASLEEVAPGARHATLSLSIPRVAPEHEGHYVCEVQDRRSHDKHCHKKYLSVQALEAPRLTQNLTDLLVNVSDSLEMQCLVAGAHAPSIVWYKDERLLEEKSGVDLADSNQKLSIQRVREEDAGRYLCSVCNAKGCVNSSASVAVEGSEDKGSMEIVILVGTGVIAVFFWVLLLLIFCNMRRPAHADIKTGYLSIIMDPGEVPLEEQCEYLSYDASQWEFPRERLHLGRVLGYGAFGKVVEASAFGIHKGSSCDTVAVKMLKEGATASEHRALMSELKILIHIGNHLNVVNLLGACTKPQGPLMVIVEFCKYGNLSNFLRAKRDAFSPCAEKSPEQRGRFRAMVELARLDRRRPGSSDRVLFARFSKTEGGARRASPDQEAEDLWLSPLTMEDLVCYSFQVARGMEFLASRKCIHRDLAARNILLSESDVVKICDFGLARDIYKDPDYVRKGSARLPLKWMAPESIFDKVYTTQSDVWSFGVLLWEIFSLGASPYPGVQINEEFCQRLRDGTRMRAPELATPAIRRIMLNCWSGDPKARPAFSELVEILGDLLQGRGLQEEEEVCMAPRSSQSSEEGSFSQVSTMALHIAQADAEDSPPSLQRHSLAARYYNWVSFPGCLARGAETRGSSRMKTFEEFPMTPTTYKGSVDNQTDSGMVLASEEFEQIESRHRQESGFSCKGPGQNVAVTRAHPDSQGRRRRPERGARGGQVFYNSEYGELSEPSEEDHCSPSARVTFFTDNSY
T3 sequence (Q02763 23-1124): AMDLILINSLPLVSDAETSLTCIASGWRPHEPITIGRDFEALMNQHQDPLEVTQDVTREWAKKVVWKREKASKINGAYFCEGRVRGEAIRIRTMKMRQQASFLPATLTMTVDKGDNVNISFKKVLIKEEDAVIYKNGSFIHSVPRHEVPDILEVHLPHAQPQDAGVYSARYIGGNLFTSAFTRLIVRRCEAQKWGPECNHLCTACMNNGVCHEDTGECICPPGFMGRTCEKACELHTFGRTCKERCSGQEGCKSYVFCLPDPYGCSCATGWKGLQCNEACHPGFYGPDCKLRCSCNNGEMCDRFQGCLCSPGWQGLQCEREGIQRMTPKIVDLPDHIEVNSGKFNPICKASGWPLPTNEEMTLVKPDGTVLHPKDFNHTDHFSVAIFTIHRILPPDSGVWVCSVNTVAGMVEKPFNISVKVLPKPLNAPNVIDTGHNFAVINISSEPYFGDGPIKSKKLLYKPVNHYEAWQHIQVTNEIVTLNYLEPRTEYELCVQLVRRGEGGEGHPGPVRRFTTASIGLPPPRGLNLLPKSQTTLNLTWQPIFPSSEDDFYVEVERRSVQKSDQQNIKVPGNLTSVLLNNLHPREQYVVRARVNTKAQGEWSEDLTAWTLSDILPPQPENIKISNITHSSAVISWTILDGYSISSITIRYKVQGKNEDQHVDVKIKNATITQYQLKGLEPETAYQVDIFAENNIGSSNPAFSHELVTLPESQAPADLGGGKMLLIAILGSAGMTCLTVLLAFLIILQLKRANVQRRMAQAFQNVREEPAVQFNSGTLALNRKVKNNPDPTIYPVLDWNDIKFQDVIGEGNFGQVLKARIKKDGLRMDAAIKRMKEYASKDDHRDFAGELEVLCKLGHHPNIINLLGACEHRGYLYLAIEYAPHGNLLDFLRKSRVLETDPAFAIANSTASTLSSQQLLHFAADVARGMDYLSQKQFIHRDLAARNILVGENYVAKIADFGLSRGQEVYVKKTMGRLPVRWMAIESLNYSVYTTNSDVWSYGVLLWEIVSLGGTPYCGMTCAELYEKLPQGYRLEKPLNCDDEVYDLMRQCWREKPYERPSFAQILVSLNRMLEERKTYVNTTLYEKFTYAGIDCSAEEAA
T1 sequence (P17948 27-1338): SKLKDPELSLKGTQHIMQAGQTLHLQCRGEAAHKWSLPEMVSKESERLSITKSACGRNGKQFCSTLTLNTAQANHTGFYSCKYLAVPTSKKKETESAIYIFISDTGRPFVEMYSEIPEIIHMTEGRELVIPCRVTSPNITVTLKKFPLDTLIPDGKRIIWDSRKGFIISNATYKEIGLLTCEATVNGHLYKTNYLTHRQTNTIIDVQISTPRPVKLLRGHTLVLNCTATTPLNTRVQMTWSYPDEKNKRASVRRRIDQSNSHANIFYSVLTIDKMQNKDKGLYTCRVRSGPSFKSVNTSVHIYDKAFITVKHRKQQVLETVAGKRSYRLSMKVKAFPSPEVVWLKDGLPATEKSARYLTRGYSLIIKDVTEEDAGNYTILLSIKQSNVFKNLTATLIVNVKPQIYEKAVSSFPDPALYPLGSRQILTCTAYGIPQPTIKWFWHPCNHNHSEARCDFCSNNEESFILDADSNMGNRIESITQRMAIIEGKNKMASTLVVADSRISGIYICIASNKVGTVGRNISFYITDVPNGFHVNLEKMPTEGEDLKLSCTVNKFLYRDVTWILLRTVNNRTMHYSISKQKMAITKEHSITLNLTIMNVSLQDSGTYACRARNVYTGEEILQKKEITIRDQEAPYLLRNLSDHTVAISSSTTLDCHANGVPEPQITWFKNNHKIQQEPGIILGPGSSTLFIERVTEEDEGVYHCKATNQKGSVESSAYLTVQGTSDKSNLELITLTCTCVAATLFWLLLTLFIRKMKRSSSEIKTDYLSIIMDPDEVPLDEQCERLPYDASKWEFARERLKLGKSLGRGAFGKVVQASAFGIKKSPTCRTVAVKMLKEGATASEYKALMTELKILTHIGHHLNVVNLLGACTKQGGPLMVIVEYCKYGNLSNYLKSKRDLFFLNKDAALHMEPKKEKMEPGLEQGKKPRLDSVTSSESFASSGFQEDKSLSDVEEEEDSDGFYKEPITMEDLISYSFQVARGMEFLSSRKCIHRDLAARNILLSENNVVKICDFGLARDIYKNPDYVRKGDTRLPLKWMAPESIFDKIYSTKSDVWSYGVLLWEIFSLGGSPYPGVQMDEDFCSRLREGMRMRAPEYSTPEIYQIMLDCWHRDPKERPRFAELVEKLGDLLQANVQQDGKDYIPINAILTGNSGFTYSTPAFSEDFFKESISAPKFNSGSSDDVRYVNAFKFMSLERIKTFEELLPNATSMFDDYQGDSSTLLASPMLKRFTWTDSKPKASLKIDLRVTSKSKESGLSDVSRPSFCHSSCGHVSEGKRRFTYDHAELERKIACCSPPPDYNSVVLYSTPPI
T4 sequence (P00533 669-1210 limits assumed): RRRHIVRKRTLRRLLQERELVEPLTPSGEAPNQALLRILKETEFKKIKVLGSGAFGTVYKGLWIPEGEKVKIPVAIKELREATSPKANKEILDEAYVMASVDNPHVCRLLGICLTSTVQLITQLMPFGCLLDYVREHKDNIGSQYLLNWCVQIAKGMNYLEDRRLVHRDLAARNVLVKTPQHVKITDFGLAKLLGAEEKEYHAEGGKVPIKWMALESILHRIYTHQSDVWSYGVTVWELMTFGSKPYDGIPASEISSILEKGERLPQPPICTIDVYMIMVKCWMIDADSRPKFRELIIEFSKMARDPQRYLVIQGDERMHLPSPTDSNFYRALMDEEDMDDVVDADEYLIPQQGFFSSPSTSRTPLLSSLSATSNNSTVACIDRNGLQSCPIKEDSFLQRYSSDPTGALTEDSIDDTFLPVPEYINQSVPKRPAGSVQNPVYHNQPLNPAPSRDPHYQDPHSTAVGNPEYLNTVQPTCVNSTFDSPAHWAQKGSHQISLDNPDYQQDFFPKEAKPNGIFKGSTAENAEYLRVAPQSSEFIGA

IC50 [1] [nM]	IC50 [2] [nM]	IC50 [3] [nM]	IC50 [4] [nM]	fraction unbound at 2 h, 2 μM [6]	IC50 [7] [nM]	solubility at 8 h [8] [µg/mL]	IC50 [9] [nM]	Compound	IC50 [5] [nM]
13.4	18.7	147	15200	0.0231	4.36	–	–	NC(=O)c1c(OCc2cc3c(cc2F)CCO3)nsc1NC(=O)NCCCCN1CCCC1 [Compound T071, 3-((5-fluoro-2,3-dihydrobenzofuran-6-yl)methoxy)-5-(3-(4-(pyrrolidin-1-yl)butyl)ureido)isothiazole-4-carboxamide]	74.5
–	–	–	> 60000	0.0269	43.3	400 (≈ 807 µM)	–	COc1cc(COc2nsc(NC(=O)NCCCCN3CC[C@@H](F)C3)c2C(N)=O)cc(OC)c1 [Compound T064, (R)-3-((3,5-dimethoxybenzyl)oxy)-5-(3-(4-(3-fluoropyrrolidin-1-yl)butyl)ureido)isothiazole-4-carboxamide]	79.2
14.7	17.4	258	11400	0.0225	10.4	–	–	CN1CCC(CCNC(=O)Nc2snc(OCc3ccc4c(c3)OCC4)c2C(N)=O)CC1 [Compound T053, 3-((2,3-dihydrobenzofuran-6-yl)methoxy)-5-(3-(2-(1-methylpiperidin-4-yl)ethyl)ureido)isothiazole-4-carboxamide]	69.7
–	–	2100	5680	0.0372	2.55	1280 (≈ 2450 µM)	–	NC(=O)c1c(OCc2cc(C(=O)NC3CC3)ccc2F)nsc1NC(=O)NCCCN1CC[C@@H](F)C1 [Compound T122, 3-[[5-(cyclopropylcarbamoyl)-2-fluoro-phenyl]methoxy]-5-[3-[(3R)-3-fluoropyrrolidin-1-yl]propylcarbamoylamino]isothiazole-4-carboxamide]	44
7.73	13	–	13900	0.025	3.55	–	–	NC(=O)c1c(OCc2cc3c(cc2F)CCO3)nsc1NC(=O)NCCCCN1CC[C@H](O)C1 [Compound T090, 3-[(5-fluoro-2,3-dihydrobenzofuran-6-yl)methoxy]-5-[4-[(3S)-3-hydroxypyrrolidin-1-yl]butylcarbamoylamino]isothiazole-4-carboxamide]	46.9
5.99	10.7	–	4550	–	2.73	–	–	CN1CCC(CCNC(=O)Nc2snc(OCc3cc4c(cc3F)CCO4)c2C(N)=O)CC1 [Compound T073]	26.9
11.8	21.4	115	5140	0.0526	4.47	–	–	NC(=O)c1c(OCc2cc3c(cc2F)CCO3)nsc1NC(=O)NCCCCN1CC[C@@H](F)C1 [Compound T079, 3-[(5-fluoro-2,3-dihydrobenzofuran-6-yl)methoxy]-5-[4-[(3R)-3-fluoropyrrolidin-1-yl]butylcarbamoylamino]isothiazole-4-carboxamide]	57.7
–	–	–	20600	0.0401	6.6	–	16	NC(=O)c1c(OCc2c(F)cc3c(c2F)OCC3)nsc1NC(=O)NCCCCN1CC[C@H](O)C1 [Compound T134, 3-[(5,7-difluoro-2,3-dihydrobenzofuran-6-yl)methoxy]-5-[4-[(3S)-3-hydroxypyrrolidin-1-yl]butylcarbamoylamino]isothiazole-4-carboxamide]	–
–	–	223	19800	0.0449	15.1	–	–	COc1ccc(F)c(COc2nsc(NC(=O)NCCCCN3CC[C@@H](F)C3)c2C(N)=O)c1F [Compound T111, 3-[(2,6-difluoro-3-methoxy-phenyl)methoxy]-5-[4-[(3R)-3-fluoropyrrolidin-1-yl]butylcarbamoylamino]isothiazole-4-carboxamide]	32
–	–	163	11800	0.0268	14.7	–	–	COc1ccc(F)c(COc2nsc(NC(=O)NCCCCN3CC[C@H](F)C3)c2C(N)=O)c1F [Compound T113, 3-[(2,6-difluoro-3-methoxy-phenyl)methoxy]-5-[4-[(3S)-3-fluoropyrrolidin-1-yl]butylcarbamoylamino]isothiazole-4-carboxamide]	27
